Test results published in the NIST ThermoML archive (doi:10.1021/acs.jced.5b00919).
Numbers after ± are expanded uncertainties.

Experiment: activity coefficient (dimensionless); of the first substance listed, at infinite dilution; xn = mol fraction of the nth substance listed
Conditions: 101 kPa, Liquid, Chromatography, x1 = 0

| SMILES | activity coefficient (338.15 K) | activity coefficient (348.15 K) | activity coefficient (358.15 K) | activity coefficient (368.15 K) |
| --- | --- | --- | --- | --- |
| CC(C)(C)O [2-methylpropan-2-ol] + CCCC[N+](C)(CCCC)CCCC.COS(=O)(=O)[O-] | 0.32 ± 0.03 | 0.28 ± 0.03 | 0.25 ± 0.03 | 0.23 ± 0.03 |
| CCCCO [butan-1-ol] + CCCC[N+](C)(CCCC)CCCC.COS(=O)(=O)[O-] | 0.4 ± 0.03 | 0.31 ± 0.03 | 0.25 ± 0.03 | 0.22 ± 0.03 |
| CCC(C)O (centres undefined) [butan-2-ol] + CCCC[N+](C)(CCCC)CCCC.COS(=O)(=O)[O-] | 0.38 ± 0.03 | 0.29 ± 0.03 | 0.24 ± 0.03 | 0.2 ± 0.03 |
| CCO [ethanol] + CCCC[N+](C)(CCCC)CCCC.COS(=O)(=O)[O-] | 0.24 ± 0.03 | 0.2 ± 0.03 | 0.19 ± 0.03 | 0.17 ± 0.03 |
| CO [methanol] + CCCC[N+](C)(CCCC)CCCC.COS(=O)(=O)[O-] | 0.16 ± 0.03 | 0.15 ± 0.03 | 0.14 ± 0.03 | 0.13 ± 0.03 |
| CCCO [propan-1-ol] + CCCC[N+](C)(CCCC)CCCC.COS(=O)(=O)[O-] | 0.29 ± 0.03 | 0.24 ± 0.03 | 0.21 ± 0.03 | 0.18 ± 0.03 |
